Assays:
[1] = test system: IUP; assay: Phenylephrine-induced IUP in a conscious canine model; assay type: in vivo; settings: conscious dog
Protocol: In-Vivo Evaluation of α1-Adrenergic Antagonists on IUP and MAP in a Conscious Canine Model
An anesthetized dog was fitted with a balloon catheter for the measurement of changes in prostatic IUP and with a number of implanted pressure transducers and telemetry transmitters for measuring MAP.
The pressor effects of challenge doses […] of the α-adrenergic agonist phenylephrine upon IUP and MAP were measured before and at various time points after a single dose (p.o.) of an α-adrenergic antagonist test compound (Compound 69) of the present invention.
Each treatment group was dosed with a test compound (0.1, 0.3, 1.0 and 3.0 mg/kg) in four separate experiments. The first challenge dose of phenylephrine for each treatment group was administered at the time of the test compound dose (time 0). The value for the first challenge dose represents an average of up to three challenge doses administered prior to time 0.
Subsequent challenge doses for all treatment groups were administered at 30 min. then one hour and two hours after time 0.
The final challenge doses for the 0.1 and 0.3 mg/kg groups were administered at four and six hours after time 0. The final challenge doses for the 1.0 mg/kg group were administered at four, six and eight hours after time 0. The final challenge doses for the 3.0 mg/kg group were administered at four, six, 12 and 24 hours after time 0.
A 7F Fogarty balloon catheter lubricated with a water-soluble jelly was inserted into the urethra and advanced into the bladder (approximately 40 cm). The balloon was inflated with approximately water (0.2 mL). The catheter was slowly withdrawn from the bladder to just past the point of first resistance from the bladder neck in order to position the balloon within the prostatic urethra. The balloon was then inflated to approximately 0.7 mL. The balloon port of the catheter was connected to a Gould Statham pressure transducer, the output of which was connected to the pressure input of a Physio Control VSM1 Patient Monitor.
A test compound was administered via the cephalic or saphenous vein using an appropriately sized IV catheter (Surflo, Terumo Medical Corporation or equivalent).
Prior to test compound administration, IUP and MAP responses to an individualized dose of phenylephrine (either 10 or 15 μg/kg IV, depending on the individual animal's response) was repeated 2 to 3 times to establish a baseline response. After test compound administration, the individualized phenylephrine dose was administered to each animal at predetermined intervals over a period of up to 24 hours.
Data for phenylephrine-induced changes in IUP and MAP were tabulated for each treatment group and each experiment. A mean value and standard deviation for the phenylephrine-induced changes to the effect of a test compound on IUP and MAP at each dose was calculated and tabulated for each treatment group over the length of the study.

[2] = biological target: T1, α1b-AR (Homo sapiens, UniProt P35368); assay: α1-Adrenergic receptor radio-ligand (125I-HEAT) binding assay, α1b subtype; settings: Receptor Binding, Ki α1b-AR, COS-7 cell membranes, 125I-HEAT
T1 sequence (P35368 1-520): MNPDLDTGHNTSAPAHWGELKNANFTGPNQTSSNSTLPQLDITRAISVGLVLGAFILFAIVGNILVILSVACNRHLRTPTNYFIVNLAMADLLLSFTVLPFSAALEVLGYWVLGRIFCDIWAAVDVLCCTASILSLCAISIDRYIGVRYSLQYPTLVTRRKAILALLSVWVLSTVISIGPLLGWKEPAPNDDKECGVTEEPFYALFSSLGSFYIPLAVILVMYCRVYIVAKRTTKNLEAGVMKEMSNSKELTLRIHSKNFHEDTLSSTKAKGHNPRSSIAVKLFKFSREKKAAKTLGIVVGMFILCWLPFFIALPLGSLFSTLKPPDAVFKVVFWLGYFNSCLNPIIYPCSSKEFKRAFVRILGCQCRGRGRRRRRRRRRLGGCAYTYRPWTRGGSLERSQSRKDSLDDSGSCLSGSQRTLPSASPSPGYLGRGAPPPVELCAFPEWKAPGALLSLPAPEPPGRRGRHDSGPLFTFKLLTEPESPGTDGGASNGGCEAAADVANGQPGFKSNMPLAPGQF

COc1ccc(S(=O)(=O)N[C@H]2CC[C@@H](N3CCN(c4ccccc4OCC(F)(F)F)CC3)CC2)cc1OC [Cpd 69, 3,4-Dimethoxy-N-cis-(4-{4-[2-(2,2,2-trifluoro-ethoxy)-phenyl]-piperazin-1-yl}-cyclohexyl)-benzenesulfonamide]
IUP, normalized % of baseline (mean) ([1]; 0.1 mg/kg p.o., 0 hrs (baseline)): 100% | IUP, normalized % of baseline (mean) ([1]; 0.1 mg/kg p.o., 0.5 hrs after dose): 87.3% | IUP, normalized % of baseline (mean) ([1]; 0.1 mg/kg p.o., 1 hrs after dose): 78.3% | IUP, normalized % of baseline (mean) ([1]; 0.1 mg/kg p.o., 2 hrs after dose): 78.8% | IUP, normalized % of baseline (mean) ([1]; 0.1 mg/kg p.o., 4 hrs after dose): 82.5% | IUP, normalized % of baseline (mean) ([1]; 0.1 mg/kg p.o., 6 hrs after dose): 86.5% | IUP, normalized % of baseline (mean) ([1]; 0.3 mg/kg p.o., 0 hrs (baseline)): 100% | IUP, normalized % of baseline (mean) ([1]; 0.3 mg/kg p.o., 0.5 hrs after dose): 63.0% | IUP, normalized % of baseline (mean) ([1]; 0.3 mg/kg p.o., 1 hrs after dose): 47.0% | IUP, normalized % of baseline (mean) ([1]; 0.3 mg/kg p.o., 2 hrs after dose): 51.1% | IUP, normalized % of baseline (mean) ([1]; 0.3 mg/kg p.o., 4 hrs after dose): 70.0% | IUP, normalized % of baseline (mean) ([1]; 0.3 mg/kg p.o., 6 hrs after dose): 84.4% | IUP, normalized % of baseline (mean) ([1]; 1.0 mg/kg p.o., 0 hrs (baseline)): 100% | IUP, normalized % of baseline (mean) ([1]; 1.0 mg/kg p.o., 0.5 hrs after dose): 32.9% | IUP, normalized % of baseline (mean) ([1]; 1.0 mg/kg p.o., 1 hrs after dose): 20.6% | IUP, normalized % of baseline (mean) ([1]; 1.0 mg/kg p.o., 2 hrs after dose): 28.6% | IUP, normalized % of baseline (mean) ([1]; 1.0 mg/kg p.o., 4 hrs after dose): 49.0% | IUP, normalized % of baseline (mean) ([1]; 1.0 mg/kg p.o., 6 hrs after dose): 66.3% | IUP, normalized % of baseline (mean) ([1]; 1.0 mg/kg p.o., 8 hrs after dose): 70.4% | IUP, normalized % of baseline (mean) ([1]; 3.0 mg/kg p.o., 0 hrs (baseline)): 100% | IUP, normalized % of baseline (mean) ([1]; 3.0 mg/kg p.o., 0.5 hrs after dose): 5.2% | IUP, normalized % of baseline (mean) ([1]; 3.0 mg/kg p.o., 1 hrs after dose): 2.2% | IUP, normalized % of baseline (mean) ([1]; 3.0 mg/kg p.o., 2 hrs after dose): 7.0% | IUP, normalized % of baseline (mean) ([1]; 3.0 mg/kg p.o., 4 hrs after dose): 17.1% | IUP, normalized % of baseline (mean) ([1]; 3.0 mg/kg p.o., 6 hrs after dose): 31.6% | IUP, normalized % of baseline (mean) ([1]; 3.0 mg/kg p.o., 12 hrs after dose): 67.7% | IUP, normalized % of baseline (mean) ([1]; 3.0 mg/kg p.o., 24 hrs after dose): 93.8% | Ki [2]: 100 nM

From US20060173015A1, “Cyclohexyldiamines as selective alpha 1a/1d adrenoreceptor antagonists for the treatment of benign prostatic hypertrophy and lower urinary tract symptoms” (priority 2004, published 2006)
